What was measured:
Acetylcholinesterase = Acetylcholinesterase (Homo sapiens, UniProt P22303); format: functional
[1] = target: Receptor tyrosine-protein kinase erbB-2 (Homo sapiens, UniProt P04626); format: functional
Thromboxane A2 receptor = target: T1, Thromboxane A2 receptor (Homo sapiens, UniProt P21731); format: functional
T1 sequence (P21731 whole entry): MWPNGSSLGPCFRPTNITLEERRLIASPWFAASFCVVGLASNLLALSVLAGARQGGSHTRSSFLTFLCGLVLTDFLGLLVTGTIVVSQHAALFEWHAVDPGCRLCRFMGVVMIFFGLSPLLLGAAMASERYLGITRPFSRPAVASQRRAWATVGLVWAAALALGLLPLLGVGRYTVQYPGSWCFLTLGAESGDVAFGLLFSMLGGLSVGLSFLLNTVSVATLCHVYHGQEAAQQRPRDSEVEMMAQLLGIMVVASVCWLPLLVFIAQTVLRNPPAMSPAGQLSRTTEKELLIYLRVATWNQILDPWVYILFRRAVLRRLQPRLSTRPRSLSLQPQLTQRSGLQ

Estrogen receptor = target: T2, Estrogen receptor (Homo sapiens, UniProt P03372); format: functional
T2 sequence (P03372 whole entry): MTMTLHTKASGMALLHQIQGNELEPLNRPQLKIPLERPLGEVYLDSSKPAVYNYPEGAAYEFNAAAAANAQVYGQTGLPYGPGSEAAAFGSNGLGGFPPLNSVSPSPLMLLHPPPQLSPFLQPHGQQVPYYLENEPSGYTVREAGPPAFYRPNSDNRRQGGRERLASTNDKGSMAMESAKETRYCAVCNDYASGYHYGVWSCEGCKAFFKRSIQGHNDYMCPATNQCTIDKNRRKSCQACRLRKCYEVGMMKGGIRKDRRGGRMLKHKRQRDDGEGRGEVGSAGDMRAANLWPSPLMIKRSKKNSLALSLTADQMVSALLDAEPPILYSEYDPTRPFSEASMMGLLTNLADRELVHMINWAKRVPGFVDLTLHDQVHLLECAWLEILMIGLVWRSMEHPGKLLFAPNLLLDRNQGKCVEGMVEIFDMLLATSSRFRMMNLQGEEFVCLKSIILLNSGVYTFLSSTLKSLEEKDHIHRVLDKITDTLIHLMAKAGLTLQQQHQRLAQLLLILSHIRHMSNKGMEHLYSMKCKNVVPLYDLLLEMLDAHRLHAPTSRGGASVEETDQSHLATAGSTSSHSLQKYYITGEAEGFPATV

[2] = target: T3, Retinoic acid receptor alpha (Homo sapiens, UniProt P10276); format: functional, cell-based
T3 sequence (P10276 whole entry): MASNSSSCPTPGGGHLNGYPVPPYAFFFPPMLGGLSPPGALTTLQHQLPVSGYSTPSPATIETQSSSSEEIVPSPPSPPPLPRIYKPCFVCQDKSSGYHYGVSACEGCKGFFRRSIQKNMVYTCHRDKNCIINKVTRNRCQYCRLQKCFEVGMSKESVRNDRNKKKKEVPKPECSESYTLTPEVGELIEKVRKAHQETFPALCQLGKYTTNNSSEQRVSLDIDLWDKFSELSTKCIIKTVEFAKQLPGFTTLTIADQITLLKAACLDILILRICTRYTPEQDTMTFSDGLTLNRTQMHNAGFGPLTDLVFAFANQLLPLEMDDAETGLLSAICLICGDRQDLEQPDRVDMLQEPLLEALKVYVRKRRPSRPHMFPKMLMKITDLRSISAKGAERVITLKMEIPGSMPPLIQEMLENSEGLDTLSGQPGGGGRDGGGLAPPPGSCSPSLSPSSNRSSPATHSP

D(4) dopamine receptor = target: T4, D(4) dopamine receptor (Homo sapiens, UniProt P21917)
T4 sequence (P21917 whole entry): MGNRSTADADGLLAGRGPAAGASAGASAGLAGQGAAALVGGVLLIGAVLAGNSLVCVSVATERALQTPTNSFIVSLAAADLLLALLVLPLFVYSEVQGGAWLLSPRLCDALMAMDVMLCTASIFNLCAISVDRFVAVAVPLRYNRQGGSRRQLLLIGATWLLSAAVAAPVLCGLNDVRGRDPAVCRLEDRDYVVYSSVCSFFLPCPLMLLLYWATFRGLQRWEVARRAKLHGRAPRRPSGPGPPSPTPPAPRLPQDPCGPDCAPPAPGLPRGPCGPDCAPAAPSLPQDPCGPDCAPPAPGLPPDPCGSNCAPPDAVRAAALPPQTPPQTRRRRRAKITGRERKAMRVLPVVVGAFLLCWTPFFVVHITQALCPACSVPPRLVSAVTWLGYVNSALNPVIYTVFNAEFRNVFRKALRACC

[3] = target: T5, Alpha-2A adrenergic receptor (Homo sapiens, UniProt P08913)
T5 sequence (P08913 whole entry): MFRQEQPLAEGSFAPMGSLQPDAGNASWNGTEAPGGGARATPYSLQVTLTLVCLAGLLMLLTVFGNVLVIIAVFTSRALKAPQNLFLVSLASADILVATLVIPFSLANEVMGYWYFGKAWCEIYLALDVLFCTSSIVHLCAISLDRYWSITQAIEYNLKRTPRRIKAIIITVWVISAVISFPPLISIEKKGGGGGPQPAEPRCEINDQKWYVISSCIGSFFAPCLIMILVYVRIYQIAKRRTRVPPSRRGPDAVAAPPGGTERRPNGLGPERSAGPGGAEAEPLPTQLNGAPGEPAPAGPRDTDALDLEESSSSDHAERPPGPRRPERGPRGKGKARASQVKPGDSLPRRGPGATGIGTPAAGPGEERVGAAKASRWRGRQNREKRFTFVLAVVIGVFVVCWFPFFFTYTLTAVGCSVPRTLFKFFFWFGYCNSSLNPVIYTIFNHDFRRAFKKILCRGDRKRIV

Substance-P receptor = Substance-P receptor (Homo sapiens, UniProt P25103)
Sequence of Substance-P receptor (P25103 whole entry): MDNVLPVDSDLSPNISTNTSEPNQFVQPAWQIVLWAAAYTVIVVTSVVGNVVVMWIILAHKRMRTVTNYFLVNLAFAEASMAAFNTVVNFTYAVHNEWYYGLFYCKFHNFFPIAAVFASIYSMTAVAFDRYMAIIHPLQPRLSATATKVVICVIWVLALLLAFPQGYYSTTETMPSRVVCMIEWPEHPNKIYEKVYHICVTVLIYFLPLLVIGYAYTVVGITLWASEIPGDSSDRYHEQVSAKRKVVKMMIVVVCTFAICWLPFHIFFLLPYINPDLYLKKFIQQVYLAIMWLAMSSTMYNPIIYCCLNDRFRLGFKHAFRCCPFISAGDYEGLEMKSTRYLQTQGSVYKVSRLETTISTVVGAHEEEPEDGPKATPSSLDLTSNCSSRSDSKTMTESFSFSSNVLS

[4] = target: 5-hydroxytryptamine receptor 7 (Homo sapiens, UniProt P34969)
Sequence of 5-hydroxytryptamine receptor 7 (P34969 whole entry): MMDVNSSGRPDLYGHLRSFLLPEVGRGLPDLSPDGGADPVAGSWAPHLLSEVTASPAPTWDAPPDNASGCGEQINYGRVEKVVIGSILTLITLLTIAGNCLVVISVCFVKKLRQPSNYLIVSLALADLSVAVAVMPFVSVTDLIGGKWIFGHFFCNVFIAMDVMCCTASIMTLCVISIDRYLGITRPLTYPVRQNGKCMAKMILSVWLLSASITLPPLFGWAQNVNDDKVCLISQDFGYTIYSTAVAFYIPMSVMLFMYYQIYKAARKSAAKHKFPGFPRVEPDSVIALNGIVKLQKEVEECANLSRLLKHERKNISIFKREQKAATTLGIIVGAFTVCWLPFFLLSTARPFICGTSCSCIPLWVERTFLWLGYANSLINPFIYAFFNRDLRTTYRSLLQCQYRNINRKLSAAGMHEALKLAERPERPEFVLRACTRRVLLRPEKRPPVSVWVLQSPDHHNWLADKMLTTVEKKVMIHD

[5] = target: Voltage-dependent L-type calcium channel subunit alpha-1C (Homo sapiens, UniProt Q13936); format: functional, cell-based
Sequence of Voltage-dependent L-type calcium channel subunit alpha-1C (Q13936 whole entry): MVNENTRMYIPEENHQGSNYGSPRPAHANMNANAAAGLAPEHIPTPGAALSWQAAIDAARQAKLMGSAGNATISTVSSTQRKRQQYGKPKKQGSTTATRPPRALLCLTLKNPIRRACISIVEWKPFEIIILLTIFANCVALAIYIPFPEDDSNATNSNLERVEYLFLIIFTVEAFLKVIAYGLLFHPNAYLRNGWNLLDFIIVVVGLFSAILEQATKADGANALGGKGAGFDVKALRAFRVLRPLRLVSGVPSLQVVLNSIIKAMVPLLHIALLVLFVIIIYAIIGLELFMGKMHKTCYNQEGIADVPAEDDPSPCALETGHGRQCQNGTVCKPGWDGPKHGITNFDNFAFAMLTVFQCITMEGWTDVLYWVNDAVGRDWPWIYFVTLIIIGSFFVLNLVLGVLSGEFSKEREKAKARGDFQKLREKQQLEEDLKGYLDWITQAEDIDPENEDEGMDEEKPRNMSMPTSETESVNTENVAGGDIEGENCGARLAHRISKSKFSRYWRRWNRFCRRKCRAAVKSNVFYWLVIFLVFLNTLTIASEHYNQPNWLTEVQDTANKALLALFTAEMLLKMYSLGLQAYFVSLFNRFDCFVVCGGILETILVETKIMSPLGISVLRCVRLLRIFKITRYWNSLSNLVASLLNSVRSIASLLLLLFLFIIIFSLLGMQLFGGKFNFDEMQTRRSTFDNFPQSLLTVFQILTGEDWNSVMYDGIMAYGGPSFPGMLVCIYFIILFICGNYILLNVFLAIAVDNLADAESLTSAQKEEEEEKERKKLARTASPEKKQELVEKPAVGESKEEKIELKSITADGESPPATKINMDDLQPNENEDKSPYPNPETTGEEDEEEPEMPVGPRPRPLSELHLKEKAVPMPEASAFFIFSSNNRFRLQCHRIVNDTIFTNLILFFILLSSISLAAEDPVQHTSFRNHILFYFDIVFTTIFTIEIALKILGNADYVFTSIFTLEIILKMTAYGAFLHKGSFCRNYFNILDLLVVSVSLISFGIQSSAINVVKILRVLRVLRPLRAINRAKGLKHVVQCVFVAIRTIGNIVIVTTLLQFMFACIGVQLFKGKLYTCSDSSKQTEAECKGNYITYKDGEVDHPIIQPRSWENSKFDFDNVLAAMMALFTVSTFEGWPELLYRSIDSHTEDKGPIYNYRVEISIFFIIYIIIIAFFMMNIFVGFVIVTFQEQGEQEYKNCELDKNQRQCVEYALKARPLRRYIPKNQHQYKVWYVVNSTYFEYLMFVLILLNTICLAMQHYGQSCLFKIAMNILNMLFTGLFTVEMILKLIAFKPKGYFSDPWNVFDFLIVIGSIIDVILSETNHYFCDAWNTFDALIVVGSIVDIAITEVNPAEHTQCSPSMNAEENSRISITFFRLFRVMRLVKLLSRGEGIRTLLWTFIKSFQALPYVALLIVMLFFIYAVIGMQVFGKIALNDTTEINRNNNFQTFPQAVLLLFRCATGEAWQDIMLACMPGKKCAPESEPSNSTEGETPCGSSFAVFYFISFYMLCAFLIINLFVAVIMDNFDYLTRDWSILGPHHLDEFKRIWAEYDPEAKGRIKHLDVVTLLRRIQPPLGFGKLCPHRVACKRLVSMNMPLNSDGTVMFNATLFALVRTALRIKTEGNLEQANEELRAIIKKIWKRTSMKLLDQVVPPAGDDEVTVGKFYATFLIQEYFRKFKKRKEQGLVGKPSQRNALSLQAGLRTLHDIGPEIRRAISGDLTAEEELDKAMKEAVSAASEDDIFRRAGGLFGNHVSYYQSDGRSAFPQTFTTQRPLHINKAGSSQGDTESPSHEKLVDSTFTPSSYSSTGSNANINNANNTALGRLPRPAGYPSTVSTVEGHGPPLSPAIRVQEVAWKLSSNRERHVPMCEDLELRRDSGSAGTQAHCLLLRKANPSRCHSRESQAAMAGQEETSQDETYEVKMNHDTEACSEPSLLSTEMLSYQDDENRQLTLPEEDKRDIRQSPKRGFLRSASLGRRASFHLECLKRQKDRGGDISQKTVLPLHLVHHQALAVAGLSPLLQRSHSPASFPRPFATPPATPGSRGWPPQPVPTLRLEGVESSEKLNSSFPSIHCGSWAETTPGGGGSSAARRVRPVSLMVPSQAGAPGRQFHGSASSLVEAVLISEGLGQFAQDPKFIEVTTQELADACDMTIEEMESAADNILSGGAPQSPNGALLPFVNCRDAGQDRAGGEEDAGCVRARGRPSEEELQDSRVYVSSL
Further: assay procedure not described here.

Sequence of Acetylcholinesterase (P22303 whole entry): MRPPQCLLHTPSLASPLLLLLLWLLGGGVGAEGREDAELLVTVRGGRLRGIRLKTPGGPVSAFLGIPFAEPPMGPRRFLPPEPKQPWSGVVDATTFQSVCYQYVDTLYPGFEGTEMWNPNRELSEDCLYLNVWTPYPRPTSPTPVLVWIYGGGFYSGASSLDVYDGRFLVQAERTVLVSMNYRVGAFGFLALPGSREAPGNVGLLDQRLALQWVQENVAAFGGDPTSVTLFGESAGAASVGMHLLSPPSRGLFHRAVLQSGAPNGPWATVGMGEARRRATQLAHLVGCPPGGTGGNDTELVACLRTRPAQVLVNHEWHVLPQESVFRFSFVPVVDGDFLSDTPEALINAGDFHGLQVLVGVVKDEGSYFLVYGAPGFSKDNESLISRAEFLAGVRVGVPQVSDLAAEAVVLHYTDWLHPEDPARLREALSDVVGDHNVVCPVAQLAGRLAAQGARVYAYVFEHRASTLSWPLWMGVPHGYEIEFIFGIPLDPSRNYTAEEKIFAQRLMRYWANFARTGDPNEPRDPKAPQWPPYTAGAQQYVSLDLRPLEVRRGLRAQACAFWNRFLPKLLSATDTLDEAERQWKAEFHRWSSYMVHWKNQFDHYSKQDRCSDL
Sequence of Receptor tyrosine-protein kinase erbB-2 (P04626 whole entry): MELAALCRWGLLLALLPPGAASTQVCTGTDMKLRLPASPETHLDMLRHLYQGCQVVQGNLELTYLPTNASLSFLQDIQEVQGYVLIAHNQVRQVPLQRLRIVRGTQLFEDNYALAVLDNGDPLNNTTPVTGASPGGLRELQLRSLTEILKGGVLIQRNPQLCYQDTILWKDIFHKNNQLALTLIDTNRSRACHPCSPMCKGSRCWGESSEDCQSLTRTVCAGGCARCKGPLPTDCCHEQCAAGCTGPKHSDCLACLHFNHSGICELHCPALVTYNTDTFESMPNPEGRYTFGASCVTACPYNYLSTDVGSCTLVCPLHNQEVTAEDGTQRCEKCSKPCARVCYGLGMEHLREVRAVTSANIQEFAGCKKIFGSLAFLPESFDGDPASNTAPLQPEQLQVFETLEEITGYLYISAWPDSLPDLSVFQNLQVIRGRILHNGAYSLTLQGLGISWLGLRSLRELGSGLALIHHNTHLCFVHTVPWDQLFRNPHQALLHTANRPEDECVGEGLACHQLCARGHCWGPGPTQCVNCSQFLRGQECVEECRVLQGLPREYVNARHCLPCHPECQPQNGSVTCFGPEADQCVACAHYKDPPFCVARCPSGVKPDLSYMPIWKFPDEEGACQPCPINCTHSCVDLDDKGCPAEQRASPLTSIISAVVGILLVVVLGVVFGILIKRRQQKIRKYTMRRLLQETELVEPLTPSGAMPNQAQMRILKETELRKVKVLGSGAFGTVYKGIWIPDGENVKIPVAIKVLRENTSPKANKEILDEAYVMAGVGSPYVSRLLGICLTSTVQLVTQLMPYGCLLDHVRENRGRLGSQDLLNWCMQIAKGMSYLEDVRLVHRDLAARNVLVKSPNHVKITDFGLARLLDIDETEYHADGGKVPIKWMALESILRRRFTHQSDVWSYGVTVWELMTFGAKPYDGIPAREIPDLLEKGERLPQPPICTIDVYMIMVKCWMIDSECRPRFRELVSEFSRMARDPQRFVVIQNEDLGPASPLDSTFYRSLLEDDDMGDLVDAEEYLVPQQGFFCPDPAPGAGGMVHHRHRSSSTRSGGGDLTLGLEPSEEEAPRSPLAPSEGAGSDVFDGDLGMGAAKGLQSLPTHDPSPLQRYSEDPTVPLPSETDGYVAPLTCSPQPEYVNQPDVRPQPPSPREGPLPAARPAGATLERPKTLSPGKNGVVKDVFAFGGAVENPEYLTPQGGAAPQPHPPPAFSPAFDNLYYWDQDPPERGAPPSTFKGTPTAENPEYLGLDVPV

Row | Compound | AC50 (Acetylcholinesterase) | AC50 [1] | AC50 (Estrogen receptor) | AC50 [3] | AC50 (Substance-P receptor) | other results
1 | CC(=N)N1CC[C@H](SC2=C(C(=O)O)N3C(=O)[C@H]([C@@H](C)O)[C@H]3C2)C1 | > 300 µM | > 300 µM | > 300 µM | – | – | AC50 (Thromboxane A2 receptor): > 300 µM
2 | CC(/C=C1\SC(=S)N(CC(=O)O)C1=O)=C\c1ccccc1 | – | – | – | – | – | AC50 [2]: > 30 µM
3 | CC1(C)S[C@@H]2[C@H](NC(=O)[C@H](N)c3ccc(O)cc3)C(=O)N2[C@H]1C(=O)O [AMOXICILLIN] | – | – | – | > 10 µM | > 10 µM | AC50 (D(4) dopamine receptor): > 10 µM; AC50 [4]: > 10 µM; AC50 [2]: > 30 µM
4 | CCc1oc2ccccc2c1C(=O)c1cc(Br)c(O)c(Br)c1 [BENZBROMARONE] | – | – | 7.6 µM | > 10 µM | – | –
5 | C=C(C)[C@@H]1CCC(C)=C[C@H]1c1c(O)cc(CCCCC)cc1O [CANNABIDIOL] | 17 µM | > 30 µM | > 30 µM | – | – | –
6 | [H]/N=C(\N/C(=N/[H])NCCCCCCNC(=N)NC(=N)Nc1ccc(Cl)cc1)Nc1ccc(Cl)cc1 [CHLORHEXIDINE] | – | – | – | > 10 µM | – | –
7 | Clc1cccc(Cl)c1N=C1NCCN1 [CLONIDINE] | – | – | – | – | > 10 µM | –
8 | COC(=O)[C@H](c1ccccc1Cl)N1CCc2sccc2C1 [CLOPIDOGREL] | – | – | > 30 µM | > 10 µM | > 10 µM | AC50 (D(4) dopamine receptor): > 10 µM; AC50 [4]: > 10 µM
9 | CNCC[C@H](Oc1cccc2ccccc12)c1cccs1 [DULOXETINE] | – | – | – | – | – | AC50 [5]: 29 µM
10 | C#Cc1cccc(Nc2ncnc3cc(OCCOC)c(OCCOC)cc23)c1 [ERLOTINIB] | > 30 µM | – | > 30 µM | – | – | AC50 (Thromboxane A2 receptor): > 30 µM
11 | CC1(C)O[C@@H]2C[C@H]3[C@@H]4C[C@H](F)C5=CC(=O)C=C[C@]5(C)[C@H]4[C@@H](O)C[C@]3(C)[C@]2(C(=O)CO)O1 [FLUNISOLIDE] | – | – | > 30 µM | – | – | –
12 | C[C@H]1Oc2cc(cnc2N)-c2c(nn(C)c2C#N)CN(C)C(=O)c2ccc(F)cc21 [LORLATINIB] | 1.8 µM | > 30 µM | > 30 µM | – | – | AC50 (Thromboxane A2 receptor): > 30 µM
13 | Cc1cnc(NC(=O)C2=C(O)c3ccccc3S(=O)(=O)N2C)s1 [MELOXICAM] | – | – | – | > 10 µM | > 10 µM | AC50 (D(4) dopamine receptor): > 10 µM; AC50 [4]: > 10 µM
14 | COc1ccnc(C[S+]([O-])c2nc3ccc(OC(F)F)cc3[nH]2)c1OC (centres undefined) [PANTOPRAZOLE] | – | – | – | > 10 µM | > 10 µM | AC50 (D(4) dopamine receptor): > 10 µM
15 | CNC[C@H](O)c1cccc(O)c1 [PHENYLEPHRINE] | – | – | – | – | > 10 µM | AC50 (D(4) dopamine receptor): > 10 µM; AC50 [4]: > 10 µM
16 | O=C1NC(=O)C(c2ccccc2)(c2ccccc2)N1 [PHENYTOIN] | > 30 µM | > 30 µM | – | – | – | AC50 [5]: > 50 µM; AC50 (Thromboxane A2 receptor): > 30 µM
17 | CC(C)C[C@H](CN)CC(=O)O [PREGABALIN] | > 30 µM | > 30 µM | > 30 µM | – | – | –
18 | CNC(=O)c1cc(Oc2ccc(NC(=O)Nc3ccc(Cl)c(C(F)(F)F)c3)c(F)c2)ccn1 [REGORAFENIB] | – | – | – | – | – | AC50 [2]: > 30 µM
19 | CCOc1cc(CC(=O)N[C@@H](CC(C)C)c2ccccc2N2CCCCC2)ccc1C(=O)O [REPAGLINIDE] | – | – | – | – | – | AC50 [2]: > 30 µM
20 | NC(=O)c1ncn([C@@H]2O[C@H](CO)[C@@H](O)[C@H]2O)n1 [RIBAVIRIN] | – | – | – | – | – | AC50 [5]: > 50 µM
21 | O=C(Nc1c(Cl)cncc1Cl)c1ccc(OC(F)F)c(OCC2CC2)c1 [ROFLUMILAST] | – | – | – | – | – | AC50 [5]: > 50 µM
22 | CCCN(CCC)CCc1cccc2c1CC(=O)N2 [ROPINIROLE] | > 30 µM | > 30 µM | – | 12 µM | – | AC50 (Thromboxane A2 receptor): > 30 µM
23 | CCCN(CCc1cccs1)[C@H]1CCc2c(O)cccc2C1 [ROTIGOTINE] | 26 µM | > 30 µM | > 30 µM | – | – | AC50 (Thromboxane A2 receptor): > 30 µM
24 | CC[C@H]1OC(=O)[C@H](C)[C@@H](O[C@H]2C[C@@](C)(OC)[C@@H](O)[C@H](C)O2)[C@H](C)[C@@H](O[C@@H]2O[C@H](C)C[C@H](N(C)C)[C@H]2O)[C@](C)(O)C[C@@H](C)/C(=N\OCOCCOC)[C@H](C)[C@@H](O)[C@]1(C)O [ROXITHROMYCIN] | > 30 µM | > 30 µM | > 30 µM | – | – | –
25 | CC(C)N(CCCCOCC(=O)NS(C)(=O)=O)c1cnc(-c2ccccc2)c(-c2ccccc2)n1 [SELEXIPAG] | – | – | – | – | – | AC50 [5]: > 50 µM
26 | CC(=O)S[C@@H]1CC2=CC(=O)CC[C@]2(C)[C@H]2CC[C@@]3(C)[C@@H](CC[C@@]34CCC(=O)O4)[C@H]12 [SPIRONOLACTONE] | > 30 µM | > 30 µM | > 30 µM | > 10 µM | > 10 µM | AC50 (D(4) dopamine receptor): > 10 µM
27 | CCCCNc1ccc(C(=O)OCCN(C)C)cc1 [TETRACAINE] | – | – | – | > 10 µM | > 10 µM | AC50 (D(4) dopamine receptor): 4.14 µM; AC50 [5]: > 30 µM; AC50 [4]: > 10 µM
28 | CC1(C)O[C@@H]2[C@@H](CO[C@@]3(COS(N)(=O)=O)OC(C)(C)O[C@@H]23)O1 [TOPIRAMATE] | – | – | – | > 10 µM | > 10 µM | AC50 (D(4) dopamine receptor): > 10 µM; AC50 [4]: > 10 µM

Reference: ChEMBL document CHEMBL5291721, “A preclinical secondary pharmacology resource illuminates target-adverse drug reaction associations of marketed drugs” (Nat Commun, 2023)
